{
  "source": "patent US8883745B2",
  "about": "“C—glycolipids with enhanced Th-1 profile” (New York University, priority 2006, dated 2014)",
  "type_in_all_cases": "in vivo",
  "key": {"[1]": {"tested_on": "IL-12", "experiment": "IL-12 levels in sera upon i.v. glycolipid administration to C57BL/6 mice (ELISA)", "parameters": "IL-12 levels, test 1 / IL-12 levels, test 2 / IL-12 levels, average / IL-12 levels, Total: unit not given here", "method_in_brief": "(§1)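 Mice were injected intravenously with 1 μg of each glycolipid diluted in PBS, and sera were taken at 0, 2, 6, 12, 24, 48 and 72 h. Serum cytokines were then measured by ELISA against a standard curve.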"}, "[2]": {"tested_on": "IFN-γ", "experiment": "IFN-γ levels in sera upon i.v. glycolipid administration to C57BL/6 mice (ELISA)", "parameters": "IFN-γ levels, test 1 / IFN-γ levels, test 2 / IFN-γ levels, average / IFN-γ levels, Total / IFN-γ (B6): unit not given here", "method_in_brief": "as §1"}, "[3]": {"tested_on": "IFN-γ", "experiment": "IFN-γ levels in sera upon i.v. glycolipid administration to BALB/c mice (ELISA)", "parameters": "IFN-γ levels, test 1 / IFN-γ levels, test 2 / IFN-γ levels, average / IFN-γ levels, Total: unit not given here", "conditions": "BALB/c", "method_in_brief": "as §1"}, "[4]": {"tested_on": "IL-12", "experiment": "IL-12 levels in sera upon i.v. glycolipid administration to BALB/c mice (ELISA)", "parameters": "IL-12 levels, test 1 / IL-12 levels, test 2 / IL-12 levels, average / IL-12 levels, Total: unit not given here", "method_in_brief": "as §1"}, "[5]": {"conditions": "C57BL/6, ratio calculated from Tables 1-6"}, "[6]": {"conditions": "C57BL/6, serum, total over hours 0-72"}, "[7]": {"conditions": "ratio calculated from Tables 1-6"}},
  "data": [
    {"smiles": "CCCCCCCCCCCCCCCCC/C=C/CCCCCCCCC(=O)N[C@@H](CC[C@H]1O[C@H](CO)[C@H](O)[C@H](O)[C@H]1O)[C@H](O)[C@H](O)CCCCCCCCCCCCCC", "note": "[A-3]", "values": [
      {"measurement": "IL-12/IL-4 (B6)", "setting": "[1]; [5]", "result": 1.5},
      {"measurement": "IL-12 levels, average", "setting": "[1]; C57BL/6, serum, hour 0", "result": 5},
      {"measurement": "IL-12 levels, test 1", "setting": "[1]; C57BL/6, serum, hour 0", "result": 5},
      {"measurement": "IL-12 levels, test 2", "setting": "[1]; C57BL/6, serum, hour 0", "result": 5},
      {"measurement": "IL-12 levels, average", "setting": "[1]; C57BL/6, serum, hour 2", "result": 75},
      {"measurement": "IL-12 levels, test 1", "setting": "[1]; C57BL/6, serum, hour 2", "result": 79},
      {"measurement": "IL-12 levels, test 2", "setting": "[1]; C57BL/6, serum, hour 2", "result": 71},
      {"measurement": "IL-12 levels, average", "setting": "[1]; C57BL/6, serum, hour 6", "result": 442},
      {"measurement": "IL-12 levels, test 1", "setting": "[1]; C57BL/6, serum, hour 6", "result": 451},
      {"measurement": "IL-12 levels, test 2", "setting": "[1]; C57BL/6, serum, hour 6", "result": 433},
      {"measurement": "IL-12 levels, average", "setting": "[1]; C57BL/6, serum, hour 12", "result": 608},
      {"measurement": "IL-12 levels, test 1", "setting": "[1]; C57BL/6, serum, hour 12", "result": 449},
      {"measurement": "IL-12 levels, test 2", "setting": "[1]; C57BL/6, serum, hour 12", "result": 767},
      {"measurement": "IL-12 levels, average", "setting": "[1]; C57BL/6, serum, hour 24", "result": 89.5},
      {"measurement": "IL-12 levels, test 1", "setting": "[1]; C57BL/6, serum, hour 24", "result": 77},
      {"measurement": "IL-12 levels, test 2", "setting": "[1]; C57BL/6, serum, hour 24", "result": 102},
      {"measurement": "IL-12 levels, average", "setting": "[1]; C57BL/6, serum, hour 48", "result": 99},
      {"measurement": "IL-12 levels, test 1", "setting": "[1]; C57BL/6, serum, hour 48", "result": 67},
      {"measurement": "IL-12 levels, test 2", "setting": "[1]; C57BL/6, serum, hour 48", "result": 131},
      {"measurement": "IL-12 levels, average", "setting": "[1]; C57BL/6, serum, hour 72", "result": 80.5},
      {"measurement": "IL-12 levels, test 1", "setting": "[1]; C57BL/6, serum, hour 72", "result": 53},
      {"measurement": "IL-12 levels, test 2", "setting": "[1]; C57BL/6, serum, hour 72", "result": 108},
      {"measurement": "IL-12 levels, Total", "setting": "[1]; [6]", "result": 1400},
      {"measurement": "IFN-γ/IL-4 (B6)", "setting": "[2]; [5]", "result": 14},
      {"measurement": "IFN-γ levels, average", "setting": "[2]; C57BL/6, serum, hour 0", "result": 31},
      {"measurement": "IFN-γ levels, test 1", "setting": "[2]; C57BL/6, serum, hour 0", "result": 31},
      {"measurement": "IFN-γ levels, test 2", "setting": "[2]; C57BL/6, serum, hour 0", "result": 31},
      {"measurement": "IFN-γ levels, average", "setting": "[2]; C57BL/6, serum, hour 2", "result": 213},
      {"measurement": "IFN-γ levels, test 1", "setting": "[2]; C57BL/6, serum, hour 2", "result": 185},
      {"measurement": "IFN-γ levels, test 2", "setting": "[2]; C57BL/6, serum, hour 2", "result": 241},
      {"measurement": "IFN-γ levels, average", "setting": "[2]; C57BL/6, serum, hour 6", "result": 606},
      {"measurement": "IFN-γ levels, test 1", "setting": "[2]; C57BL/6, serum, hour 6", "result": 542},
      {"measurement": "IFN-γ levels, test 2", "setting": "[2]; C57BL/6, serum, hour 6", "result": 670},
      {"measurement": "IFN-γ levels, average", "setting": "[2]; C57BL/6, serum, hour 12", "result": 2440.5},
      {"measurement": "IFN-γ levels, test 1", "setting": "[2]; C57BL/6, serum, hour 12", "result": 2665},
      {"measurement": "IFN-γ levels, test 2", "setting": "[2]; C57BL/6, serum, hour 12", "result": 2216},
      {"measurement": "IFN-γ levels, average", "setting": "[2]; C57BL/6, serum, hour 24", "result": 9036},
      {"measurement": "IFN-γ levels, test 1", "setting": "[2]; C57BL/6, serum, hour 24", "result": 9837},
      {"measurement": "IFN-γ levels, test 2", "setting": "[2]; C57BL/6, serum, hour 24", "result": 8235},
      {"measurement": "IFN-γ levels, average", "setting": "[2]; C57BL/6, serum, hour 48", "result": 344},
      {"measurement": "IFN-γ levels, test 1", "setting": "[2]; C57BL/6, serum, hour 48", "result": 382},
      {"measurement": "IFN-γ levels, test 2", "setting": "[2]; C57BL/6, serum, hour 48", "result": 306},
      {"measurement": "IFN-γ levels, average", "setting": "[2]; C57BL/6, serum, hour 72", "result": 79.5},
      {"measurement": "IFN-γ levels, test 1", "setting": "[2]; C57BL/6, serum, hour 72", "result": 75},
      {"measurement": "IFN-γ levels, test 2", "setting": "[2]; C57BL/6, serum, hour 72", "result": 84},
      {"measurement": "IFN-γ levels, Total", "setting": "[2]; [6]", "result": 12751},
      {"measurement": "IFN-γ/IL-4 (BALB/c)", "setting": "[3]; [7]", "result": 40},
      {"measurement": "IFN-γ levels, average", "setting": "[3]; serum, hour 0", "result": 27},
      {"measurement": "IFN-γ levels, test 1", "setting": "[3]; serum, hour 0", "result": 27},
      {"measurement": "IFN-γ levels, test 2", "setting": "[3]; serum, hour 0", "result": 27},
      {"measurement": "IFN-γ levels, average", "setting": "[3]; serum, hour 2", "result": 163},
      {"measurement": "IFN-γ levels, test 1", "setting": "[3]; serum, hour 2", "result": 137},
      {"measurement": "IFN-γ levels, test 2", "setting": "[3]; serum, hour 2", "result": 189},
      {"measurement": "IFN-γ levels, average", "setting": "[3]; serum, hour 6", "result": 1172},
      {"measurement": "IFN-γ levels, test 1", "setting": "[3]; serum, hour 6", "result": 1072},
      {"measurement": "IFN-γ levels, test 2", "setting": "[3]; serum, hour 6", "result": 1272},
      {"measurement": "IFN-γ levels, average", "setting": "[3]; serum, hour 12", "result": 3938.5},
      {"measurement": "IFN-γ levels, test 1", "setting": "[3]; serum, hour 12", "result": 3891},
      {"measurement": "IFN-γ levels, test 2", "setting": "[3]; serum, hour 12", "result": 3986},
      {"measurement": "IFN-γ levels, average", "setting": "[3]; serum, hour 24", "result": 15700},
      {"measurement": "IFN-γ levels, test 1", "setting": "[3]; serum, hour 24", "result": 14100},
      {"measurement": "IFN-γ levels, test 2", "setting": "[3]; serum, hour 24", "result": 17300},
      {"measurement": "IFN-γ levels, average", "setting": "[3]; serum, hour 48", "result": 224.5},
      {"measurement": "IFN-γ levels, test 1", "setting": "[3]; serum, hour 48", "result": 231},
      {"measurement": "IFN-γ levels, test 2", "setting": "[3]; serum, hour 48", "result": 218},
      {"measurement": "IFN-γ levels, average", "setting": "[3]; serum, hour 72", "result": 61},
      {"measurement": "IFN-γ levels, test 1", "setting": "[3]; serum, hour 72", "result": 62},
      {"measurement": "IFN-γ levels, test 2", "setting": "[3]; serum, hour 72", "result": 60},
      {"measurement": "IFN-γ levels, Total", "setting": "[3]; serum, total over hours 0-72", "result": 21287},
      {"measurement": "IL-12/IL-4 (BALB/c)", "setting": "[4]; [7]", "result": 9},
      {"measurement": "IL-12 levels, average", "setting": "[4]; serum, hour 0", "result": 5},
      {"measurement": "IL-12 levels, test 1", "setting": "[4]; serum, hour 0", "result": 5},
      {"measurement": "IL-12 levels, test 2", "setting": "[4]; serum, hour 0", "result": 5},
      {"measurement": "IL-12 levels, average", "setting": "[4]; serum, hour 2", "result": 240},
      {"measurement": "IL-12 levels, test 1", "setting": "[4]; serum, hour 2", "result": 362},
      {"measurement": "IL-12 levels, test 2", "setting": "[4]; serum, hour 2", "result": 118},
      {"measurement": "IL-12 levels, average", "setting": "[4]; serum, hour 6", "result": 1384.5},
      {"measurement": "IL-12 levels, test 1", "setting": "[4]; serum, hour 6", "result": 1356},
      {"measurement": "IL-12 levels, test 2", "setting": "[4]; serum, hour 6", "result": 1413},
      {"measurement": "IL-12 levels, average", "setting": "[4]; serum, hour 12", "result": 3010.5},
      {"measurement": "IL-12 levels, test 1", "setting": "[4]; serum, hour 12", "result": 3256},
      {"measurement": "IL-12 levels, test 2", "setting": "[4]; serum, hour 12", "result": 2765},
      {"measurement": "IL-12 levels, average", "setting": "[4]; serum, hour 24", "result": 161},
      {"measurement": "IL-12 levels, test 1", "setting": "[4]; serum, hour 24", "result": 134},
      {"measurement": "IL-12 levels, test 2", "setting": "[4]; serum, hour 24", "result": 188},
      {"measurement": "IL-12 levels, average", "setting": "[4]; serum, hour 48", "result": 0},
      {"measurement": "IL-12 levels, test 1", "setting": "[4]; serum, hour 48", "result": 0},
      {"measurement": "IL-12 levels, test 2", "setting": "[4]; serum, hour 48", "result": 0},
      {"measurement": "IL-12 levels, average", "setting": "[4]; serum, hour 72", "result": 75.5},
      {"measurement": "IL-12 levels, test 1", "setting": "[4]; serum, hour 72", "result": 0},
      {"measurement": "IL-12 levels, test 2", "setting": "[4]; serum, hour 72", "result": 151},
      {"measurement": "IL-12 levels, Total", "setting": "[4]; serum, total over hours 0-72", "result": 4878}
    ]}
  ]
}
